How the values were obtained:
[1] = tested on: airway pressure of guinea pig sensitized with ovalbumin; assay: Antigen (ovalbumin) induced airway contraction, immediate type asthmatic model, Konzett and Rossler method; type: in vivo; settings: for increase ratio of the airway pressure / inhibition compared to the control group / increase in the airway pressure: 10 min; for inhibition of the immediate type asthmatic reaction (airway contraction): inhalation administration, guinea pigs
Protocol: In order to examine the bronchodilation effect of the glucuronides of salbutamol and isoprenaline of β2-agonists, an asthmatic model of a guinea pig sensitized with ovalumin was used. The test was conducted in accordance with the method of Konzett and Rossler (Arch. Exp. Pathol. Pharmakol., 195, 71-75, 1940).
On day 1 and day 8 after the initiation of sensitization, 500 μg/0.5 mL of ovalbumin was intramuscularly administered to both legs of a guinea pig and 1.5×10^5 cells/mL/animal of pertussis vaccine was intraperitoneally administered to effect active sensitization. On day 15 after the initiation of sensitization, 10 and 100 μg/site of ovalbumin were intradermally administered to the back of the guinea pig, respectively, to check the state of sensitization. Only the animals which were found positive by the sensitization check 6 hours after the intradermal sensitization were used in the experiment.
As the test substance, a drug solution was atomized by reducing the atomizing amount of an ultrasonic nebulizer to generate an aerosol, and the aerosol was then led into an exposure chamber (M.I.P.S. Co.), sucked at a rate of 3 L/min with the use of an air pump (SPP-3GA, Techno Takatsuki Co.) and administered to the guinea pig for 10 minutes by inhalation 40 minutes before the challenge of ovalbumin.
On day 10 to 23 after the initiation of sensitization, the animals were anesthetized with sodium pentobarbital (50 mg/kg, i.p.), and cannulation was conducted into the trachea. Through the tracheal cannula the animals were connected to an artificial respirator and the change in the ventilation pressure under artificial respiration (a ventilation amount of 10 mL/kg, a ventilation frequency of 50 times/min) was recorded as the airway pressure through a differential pressure transducer (Validyne, Gould Electronics) connected to the tracheal cannula on a recorder (WT-645G, Nihon Koden Co., Ltd.). The airway pressure was measured up to 10 minutes after the administration of ovalbumin. Then, cannulation was conducted into the right and left common carotid veins. From the left cannulation, gallamine (10 mg/mL) in a volume of 1 mL/kg was intravenously administered ([…]) to confirm the disappearance of spontaneous respiration. Thereafter, ovalbumin was intravenously administered to induce an antigen-antibody reaction. The measuring points of the airway pressure were set at a time before induction, and at 1, 3, 5, 7, and 10 minutes after induction. The ratio of the increase in the airway pressure is represented by the percentage of the values obtained by subtracting the observed value before induction from the observed value at each measuring time after induction based on the maximum occlusion at each measuring time.
As the test substances, salbutamol glucuronide and isoprenaline glucuronide were used. The salbutamol glucuronide is a white powder and the isoprenaline glucuronide is a brown crystal and both were stored at −80° C. under protection from light. As the control substances for comparison, each of sulbutamol chloride (hereinafter referred to as sulbutamol) and isoprenaline chloride (hereinafter referred to as isoprenaline) was used. The salbutamol and the isoprenaline are white powders and were stored at room temperature under protection from light. The test substances and the control substances for comparison were weighed in a necessary amount and dissolved in physiological saline (products of Otsuka Pharmaceutical Factory, Inc., Lot Nos. 1D78 and 1E84) to effect the preparation before using. The concentrations of the test substances and the control substances for comparison in solutions were rendered equivalent amounts by molar concentration. All solutions were nearly stable at room temperature for 24 hours.
The obtained experimental results were shown by mean values and standard deviations with airway pressure. As to the test of significance, the Student's t test without any correspondence was conducted when two groups were compared. […]

[2] = tested on: blood pressure and heart rate; assay: Blood pressure and heart rate after generalized inhalation exposure; type: in vivo, Crj:CD(SD) rats; settings: inhalation 10 min; for increase of the heart rate: after five minutes
Protocol: The test was conducted by using Crj:CD(SD) rats with each group of 6 rats.
Surgery was carried out under the anesthesia of a mixed gas of oxygen, nitrous oxide and isoflurane, and one end of a polyethylene tube (PE50, Becton Dickinson) filled with physiological saline containing heparin (100 U/mL) was inserted into a common carotid artery and indwelled, and the other end was passed through the neighborhood of the neck of the back of the animal and connected to a cannula (Instec Co.) installed at the upper portion of an exposure chamber. This cannula was connected to a pressure transducer (P23XL. Gould Electronics) through a polyethylene tube. Further, the periphery of the polyethylene tube from the back of the rat up to this cannula was passed through a metallic spring to prevent a damage to be caused by the rat.
The administration of the drugs was conducted by preparing an exposure chamber and subjecting the rat with a cannula for measuring blood pressure in the indwelled state in the common cartoid artery to the generaliged inhalation exposure. This method is typically used in the generalized inhalation exposure.
The signals from the pressure transducer (P23XL, Gould Electronics) were led to a pressure processor signal conditioner (Gould Electronics) and recorded on a thermal array recorder (RS3400, Gould Electronics). The blood pressure and the heart rate were continuously recorded from before the initiation of administration to 20 minutes after the completion of administration. The administration of the drugs was initiated when not less than one hour after waking passed and the measurement parameters were stabilized.
Test substances were prepared in the same manner as in Example 1.
The representative values of each group were shown by mean values [[…] (S.E.)]. With the mean values of each group, the test of significance was conducted by the Tukey's multiple test. Further, the significant standard was regarded as 5%.

[3] = tested on: airway pressure of guinea pig sensitized with ovalbumin; assay: Antigen (ovalbumin) induced airway contraction, immediate type asthmatic model, Konzett and Rossler method; type: in vivo; settings: for inhibition compared to the control group: 10 min
[4] = tested on: tracheal smooth muscle sample of a pig; assay: In vitro inhibition of smooth muscle contraction induced with high concentration of KCl or carbachol; type: cell-based
Protocol: (§1) The smooth muscle contraction induced in the tracheal smooth muscle sample of a pig with a high concentration of KCl or carbachol is inhibited with an IC50 of about 5 μM. […] In mice, rats, guinea pigs, dogs, and monkeys, as the result of blood analysis after the administration, not less than 99% of the compound was the glucuronic conjugate in any of the animal species.

[5] = Blood analysis after oral administration (glucuronidation); type: in vivo, and monkeys; settings: mice, rats, guinea pigs, dogs, monkeys (any species)
Protocol: as §1

[6] = inhalation 0.157%, after three minutes
[7] = inhalation 0.072%, after three minutes
[8] = 5 mg/L, during 30 minutes of measurement
[9] = inhalation 0.1%, three minutes after antigen induction
[10] = 1 mg/L, during 30 minutes of measurement

For `CC(C)NCC(O)c1ccc(O[C@@H]2OC(C(=O)O)[C@@H](O)C(O)C2O)c(O)c1` (stereo partly drawn) [isoprenaline glucuronide, 4-O-(β-D-Glucuronyl)-isoprenaline], the “increase ratio of the airway pressure” value [1, 6] was “about 10%”, the “inhibition compared to the control group” value [1, 6] was “about 77%” and the “inhibition of the immediate type asthmatic reaction (airway contraction)” value [1] was “significantly inhibit”. The “effect on blood pressure and heart rate” value ([2]; 1.57 mg/L) was “no effect was recognized at all”.
For `CC(C)(C)NCC(O)c1ccc(O)c(CO[C@@H]2OC(C(=O)O)[C@@H](O)C(O)C2O)c1` (stereo partly drawn) [salbutamol glucuronide, 3-O-(β-D-Glucuronyl)-salbutamol], the “increase ratio of the airway pressure” value [1, 7] was “about 20%”, the “inhibition of the immediate type asthmatic reaction (airway contraction)” value [1] was “significantly inhibit” and the “effect on blood pressure and heart rate” value ([2]; 7.2 mg/L) was “no effect was observed at all”. For the same molecule, the “inhibition compared to the control group” value [3, 7] was “about 56%”.
With `CC(C)(C)NCC(O)c1ccc(O)c(CO)c1` (stereo not shown) [salbutamol] the “increase in the airway pressure” value ([1]; inhalation 0.05%, 40 min before challenge, three minutes after antigen induction) was “about 3%”, the “inhibition compared to the control group” value ([1]; inhalation 0.05%, three minutes after antigen induction) was “about 92%” and the “increase of the heart rate” value ([2]; 5 mg/L) was “about 36%”. The “maximum blood pressure decrease ratio” value [2, 8] was 27%, the “maximum heart rate increase ratio” value [2, 8] was 39% and the “decrease of the blood pressure vs before inhalation (pre)” value ([2]; 5 mg/L, five minutes after completion of inhalation) was “about 26%”. It also gave a blood pressure ([2]; salbutamol 5 mg/L, five minutes after completion of inhalation) of 75 mmHg.
For `CCC1Cc2c(O)cc(O)cc2Sc2ccccc21` (stereo not shown) [11-Ethyl-7,9-dihydroxy-10,11-dihydrobenzo[b,f]thiepin], the airway contraction inhibition ([3]; oral administration, 10 mg/kg) was “showed the airway contraction inhibition”, the IC50 [4] was ~5 µM and the “portion of the compound present as glucuronic conjugate in blood” value [5] was “not less than 99%”.
With `CC(C)NCC(O)c1ccc(O)c(O)c1` (stereo not shown) [isoprenaline] the “increase in the airway pressure” value [1, 9] was “about 12%”, the “increase of the heart rate” value ([2]; 1 mg/L) was “about 49%” and the “maximum decrease of the blood pressure” value [2, 10] was 28%. For the same molecule, the “maximum increase of the heart rate” value [2, 10] was 50%, the “decrease of the blood pressure vs before the treatment” value ([2]; 1 mg/L, five minutes after completion of inhalation) was “about 27%” and the blood pressure ([2]; isoprenaline 1 mg/L, five minutes after completion of inhalation) was 72 mmHg. The “inhibition compared to the control group” value [3, 9] was “about 73%”.

Reference: patent US20050203061A1, “Prodrug, medicinal utilization thereof and process for producing the same” (priority 2002, published 2005)
